Source: patent publication US12577278B2, “KRAS G12V mutant binds to JAK1, inhibitors, pharmaceutical compositions, and methods related thereto” (Emory University, priority 2019, dated 2026)
Where a SMILES comes first, the peptide text is derived from it.

Key:
[1] = molecular target: T1, KRAS-G12V-JAK1 interaction (Homo sapiens, UniProt P01116, G12V); experiment: TR-FRET assay of the KRAS-G12V/JAK1 interaction in HEK293T lysate; type: binding; conditions: FIG. 2B, 2D
Protocol: TR-FRET titration assay was performed with HEK293T lysate that had been co-transfected with His-KRAS-G12V and Flag-JAK1. TR-FRET signals were recorded upon treatment with the synthetic peptide 8-mer (RasKi) or the 9-mer control (0 to 50 μM).
Cell lysate from HEK293T cells co-expressing GST-KRAS-G12V and Venus-Flag-JAK1 was treated with the synthetic peptide 8-mer WT ([…], SEQ ID NO: 1) or an 8-mer with K606E mutation. A panel of mutations in 8-mer (5 μM) were tested including M603A ([…], SEQ ID NO: 2).

[2] = test system: KRAS isogenic cell lines SW48, LIM1215, H838; experiment: IFNγ-induced cell death in KRAS-WT and G12V isogenic cells; type: cell-based; conditions: FIG. 4A; for cell killing without IFNγ: no IFNγ
From the text: Bar graphs show the cell death of three pairs of KRAS isogenic cell lines SW48, LIM1215, H838 under different treatment conditions.
Bar graphs show cell death in three KRAS isogenic G12V cell lines in response to IFNγ stimulation and 8-mer peptide, with or without treatment with a JAK1 inhibitor or an IFNγ-receptor antagonist.

[3] = molecular target: T1, KRAS-G12V-JAK1 interaction; experiment: GST-affinity pull-down assay under endogenous conditions; type: binding; parameters: endogenous in cells; conditions: FIG. 2F
[4] = test system: JAK-STAT pathway; experiment: IFN-γ stimulated signaling under endogenous conditions in SW48 KRAS isogenic cell lines (luciferase, Western blot, RT-qPCR); type: cell-based; conditions: SW48 G12V cells, IFN-γ 1 ng/ml 18 hours, FIG. 3E
Protocol: FOC (Fold of control) of STAT1 transcriptional activity was calculated in SW48 (KRAS isogenic colon cancer) WT and G12V cell lines with IFN-γ stimulation comparing to that without IFN-γ stimulation. RasKi was transduced into G12V cells by lentivirus. Cells were treated with IFN-γ (1 ng/ml) for 18 hours after 24 hours of transduction. Dual-luciferase assays were performed, and relative luciferase activity was measured, normalized to Renilla luciferase control.
Western Blot was performed to detect changes in the JAK-STAT pathway in SW48 cell lines (KRAS isogenic colon cancer with G12V), with or without IFN-γ (1 ng/ml) for 30 minutes. FOC bar graphs show STAT1/3 phosphorylation, IRF1 and TAP1 expression in three groups after IFN-γ stimulation comparing to basal level.
Expression of TAP1, IRF1, PD-L1 mRNA was normalized to GAPDH in SW48 cell lines as detected using RT-qPCR (reverse transcription-quantitative polymerase chain reaction). Cells were treated with IFN-γ (1 ng/ml) for 18 hours.

[5] = molecular target: T1, KRAS-G12V-JAK1 interaction; experiment: GST-affinity pull-down assay; type: binding
[6] = test system: IFN-γ stimulated STAT1 transcription; experiment: STAT1 transcription dual-luciferase assay in HEK293T cells; type: cell-based; conditions: JAK1 and KRAS-G12V co-expressed with RasKi, 1 ng/ml IFN-γ 18 hours, FIG. 3A
Protocol: STAT1 transcriptional activity was tested in HEK293T cells with a dual-luciferase assay. Luciferase activity was measured upon co-expression of JAK1 and KRAS WT, G12V, or G12V with 8-mer. Fold of Control (FOC) with IFN-γ stimulation was calculated comparing to samples without IFN-γ stimulation. Cells were treated with 1 ng/ml IFN-γ for 18 hours after 24 hours of transfection. Dual-luciferase assays were performed, and relative luciferase activity was measured normalized to Renilla luciferase control.

[7] = cell permeability of the peptide; type: cell-based
[8] = test system: JAK-STAT pathway; experiment: Western blot of JAK-STAT pathway signaling in HEK293T cells; type: cell-based; conditions: HEK293T with KRAS-G12V, FIG. 3B
Protocol: Western Blot was performed to detect the JAK-STAT pathway signaling change in HEK293T cells with overexpressed JAK1 along with KRAS-WT, G12V, or G12V with 8-mer, with or without IFN-γ stimulation (1 ng/ml, 30 minutes). FOC bar graphs show the levels of phosphorylated STAT1 and STAT3 phosphorylation, and the expression of IRF1 and TAP1 after IFN-γ stimulation in comparison to that without stimulation.

[9] = test system: KRAS isogenic cell lines SW48, LIM1215, H838; experiment: NK92 cell-induced death of KRAS-WT and G12V isogenic cells; type: cell-based; conditions: FIG. 4C
From the text: Dose-dependent killing curves of RasKi/8-mer peptide are shown for KRAS WT and G12V isogenic SW48, LIM1215, H838 cell lines with or without NK92 cell stimulation from cell viability readouts.
RasKi dose-dependent cell death curves were established for KRAS isogenic cell lines treated with JAK1 inhibitor or IFNγ-receptor antagonist in response to NK92 cell stimulation. Bar graphs show integrated results from area under curve (AUC) data of each treatment condition.

[10] = test system: HLA-A2+ KRAS WT/G12V cancer cells; experiment: anti-NY-ESO-1 CD8+ T cell-mediated killing, CellTiter Blue viability; type: cell-based; conditions: under T-cell stimulation; FIG. 5A-5F
Protocol: The lentivirus-transduced HLA-A2+ parental KRAS WT cells, SW48-A2+ and their KRAS G12V knock-in isogenic cells were co-cultured with anti-NY-ESO-1 CD8+ T cells, or treated with RasKi, RasKi-K606E, or in combinations as indicated. The cell viability after treatment was measured using CellTiter Blue™ reagent. The growth inhibition was normalized to the untreated control.
The lentivirus-transduced HLA-A2+ patient derived KRAS WT colon cancer cells (SW48-A2+, LIM1215-A2+ and Caco-2-A2+) and KRASG12V colon cancer cells (SW403-A2+, SW480-A2+ and SW620-A2+) were co-cultured with anti-NY-ESO-1 CD8+ T cells, or treated with RasKi, RasKi-K606E, or in combinations as indicated. The cell viability after treatment was measured using CellTiter Blue™ reagent. The growth inhibition was normalized to the untreated control.
The G12V isogenic cells (SW48G12V-A2+, LIM1215G12V-A2+ and H838G12V-A2+) and were co-cultured with anti-NY-ESO-1 CD8+ T cells and treated with RasKi, or in addition with JAK inhibitor (JAKi) or IFNγ receptor antagonist (IFNγRa) as indicated. The cell viability after treatment was measured using CellTiter Blue™ reagent. The growth inhibition was normalized to the untreated control. Each dot represents an individual cell line.
A gene-engineered CD8+ T cell was produced to specifically target an antigen expressed in an HLA-class I-restricted manner. […]

With `CSCC[C@H](N)C(=O)N[C@@H](CC(=O)O)C(=O)N[C@@H](Cc1ccc(O)cc1)C(=O)N[C@@H](CCCCN)C(=O)N[C@@H](CC(=O)O)C(=O)N[C@@H](CC(=O)O)C(=O)N[C@@H](CCC(=O)O)C(=O)NCC(=O)O` [RasKi] (H-MDYKDDEG-OH; N-terminus and C-terminus assumed) the “disruption of the JAK1/KRAS-G12V interaction” value [1] was “effectively disrupt”, the “cell killing without IFNγ” value [2] was “no difference” and the “cell killing without IFNγ” value ([2]; listed as 8-mer) was “No cell killing effect”. The “IFNγ-induced killing effect in cells with KRAS-G12V” value ([2]; with IFNγ, compared to KRAS-WT cells) was “drastically increased”, the “disruption of the KRAS-G12V/JAK1 interaction at endogenous level” value [3] was “effectively disrupt the interaction” and the “expression of mRNAs for IRF1, TAP1, and PD-L1” value [4] was “increased”. The “competition with JAK1 full length for binding to KRAS-G12V” value ([5]; GST pull-down, FIG. 2C, 2E) was “can compete”, the “binding to KRAS-G12V” value ([5]; JAK1 truncation mapping) was “sufficient for KRAS-G12V binding” and the “STAT1 transcriptional activity upon IFNγ treatment” value [6] was “completely reversed the KRAS-G12V effect”. For the same molecule, the cell permeability [7] was “cell permeable”, the STAT1/3 phosphorylation ([8]; IFN-γ 1 ng/ml, 30 minutes) was “increased” and the “expression of IRF1 and TAP1 proteins” value ([8]; IFN-γ stimulation) was “increased”. The “killing of cells with WT KRAS together with NK92 cells” value ([9]; KRAS WT cells, NK92 co-culture) was “but not cells with WT KRAS”, the “killing of cancer cells with KRAS-G12V together with NK92 cells” value ([9]; KRAS-G12V cells, NK92 co-culture) was “synergized with NK92 cells to induce dose-dependent killing” and the “viability of cancer cells, peptide per se” value ([9]; WT or G12V cells, without NK92 cells) was “had no effect”. The “T-cell killing in G12V cells” value [10] was “enhanced T-cell killing”.
